≈ marks a conversion by molar mass, not a printed value. One block for each compound: values may come before it.
Experiments:
[1] = Hepatic clearance in human liver microsomes at 1 uM after 20 to 60 mins by LC-MS/MS analysis; assay type: ADME, Microsome
[2] = Hepatic clearance in CD-1 mouse hepatocytes at 1 uM by LC-MS/MS analysis; assay type: ADME, cell-based, Liver, Hepatocyte
[3] = Aqueous solubility of the compound in PBS buffer at 100 uM after 24 hrs by LC/CLND analysis; assay type: physicochemical
[4] = Apparent permeability from apical to basolateral side in MDCK cells at 10 uM by LC-MS/MS analysis; assay type: ADME, cell-based, Canis lupus familiaris; conditions: dog
[5] = Hepatic clearance in CD-1 mouse liver microsomes at 1 uM after 20 to 60 mins by LC-MS/MS analysis; assay type: ADME, Microsome
[6] = Volume of distribution at steady state in BALB/c mouse at 1 mg/kg, iv by LC/MS/MS analysis; assay type: ADME, organism-based; parameters: dose 1 mg/kg, route intravenous; conditions: in vivo, read-out: Vdss
[7] = Cmax in BALB/c mouse at 5 mg/kg, po by LC/MS/MS analysis; assay type: ADME, organism-based; parameters: dose 5 mg/kg, route oral; conditions: in vivo
[8] = Clearance in BALB/c mouse at 1 mg/kg, iv by LC/MS/MS analysis; assay type: ADME, organism-based; parameters: dose 1 mg/kg, route intravenous; conditions: in vivo
[9] = Half life in BALB/c mouse at 1 mg/kg, iv by LC/MS/MS analysis; assay type: ADME, organism-based; parameters: dose 1 mg/kg, route intravenous; conditions: in vivo
[10] = Half life in BALB/c mouse at 5 mg/kg, po by LC/MS/MS analysis; assay type: ADME, organism-based; parameters: dose 5 mg/kg, route oral; conditions: in vivo
[11] = Oral bioavailability in BALB/c mouse at 5 mg/kg by LC/MS/MS analysis; assay type: ADME, organism-based; conditions: in vivo
[12] = Tmax in BALB/c mouse at 5 mg/kg, po by LC/MS/MS analysis; assay type: ADME, organism-based; parameters: dose 5 mg/kg, route oral; conditions: in vivo

Compound: O=C(NCc1cccnc1)Nc1ccc(S(=O)(=O)N2C3CCC2COC3)cc1
CLhep predicted at 1 µM [1]: 8 mL/min/kg

Compound: O=C(NCc1cccnc1)Nc1ccc(S(=O)(=O)N2C[C@@H]3C[C@H]2CO3)cc1
CLhep predicted at 1 µM [1]: 3 mL/min/kg

Compound: O=C(NCc1cccnc1)Nc1ccc(S(=O)(=O)N2CCC23COC3)cc1
CLhep predicted at 1 µM [1]: 8 mL/min/kg

Compound: O=C(NCc1cccnc1)Nc1ccc(S(=O)(=O)N2CCC3(CCCN3)CC2)cc1
CLhep predicted at 1 µM [1]: 7 mL/min/kg

Compound: O=C(NCc1cccnc1)Nc1ccc(S(=O)(=O)N2CCC3(CCNC3)CC2)cc1
CLhep predicted at 1 µM [2]: 9.2 mL/min/kg
solubility at 24 h, 100 µM [3]: 75 µM (≈ 32.2 µg/mL)
Papp A→B at 10 µM [4]: 0.07 ×10⁻⁶ cm/s
CLhep predicted at 1 µM [5]: 44 mL/min/kg
CLhep predicted at 1 µM [1]: 4 mL/min/kg

Compound: O=C(NCc1cccnc1)Nc1ccc(S(=O)(=O)N2CCC3(CCNCC3)C2)cc1
CLhep predicted at 1 µM [1]: 2 mL/min/kg

Compound: O=C(NCc1cccnc1)Nc1ccc(S(=O)(=O)N2CCCNCC2)cc1
CLhep predicted at 1 µM [1]: 6 mL/min/kg

Compound: O=C(NCc1cccnc1)Nc1ccc(S(=O)(=O)N[C@@H]2CCNC[C@H]2F)cc1
CLhep predicted at 1 µM [1]: 3 mL/min/kg

Compound: CCN1CC[C@@H](NS(=O)(=O)c2ccc(NC(=O)NCc3cccnc3)cc2)[C@@H](F)C1
CLhep predicted at 1 µM [1]: 6 mL/min/kg

Compound: N[C@H]1CC[C@H](NS(=O)(=O)c2ccc(NC(=O)NCc3cccnc3)cc2)CC1
CLhep predicted at 1 µM [2]: 6.3 mL/min/kg
solubility at 24 h, 100 µM [3]: 161 µM (≈ 65 µg/mL)
Papp A→B at 10 µM [4]: 0.2 ×10⁻⁶ cm/s
CLhep predicted at 1 µM [5]: 27 mL/min/kg
CLhep predicted at 1 µM [1]: 5 mL/min/kg

Compound: O=C(NCc1cccnc1)Nc1ccc(S(=O)(=O)N[C@H]2CC[C@H](O)CC2)cc1
CLhep predicted at 1 µM [1]: 2 mL/min/kg

Compound: O=C(NCc1cccnc1)Nc1ccc(S(=O)(=O)N[C@H]2CCC[C@H](O)C2)cc1
CLhep predicted at 1 µM [2]: 19 mL/min/kg
solubility at 24 h, 100 µM [3]: 136 µM (≈ 55 µg/mL)
Papp A→B at 10 µM [4]: 0.1 ×10⁻⁶ cm/s
CLhep predicted at 1 µM [5]: 61 mL/min/kg
CLhep predicted at 1 µM [1]: 4 mL/min/kg

Compound: C[C@@H]1CN(S(=O)(=O)c2ccc(NC(=O)NCc3cccnc3)cc2)C[C@H](C)O1
CLhep predicted at 1 µM [2]: 55 mL/min/kg
solubility at 24 h, 100 µM [3]: 112 µM (≈ 45.3 µg/mL)
Papp A→B at 10 µM [4]: 3.1 ×10⁻⁶ cm/s
CLhep predicted at 1 µM [5]: 81 mL/min/kg
CLhep predicted at 1 µM [1]: 17 mL/min/kg

Compound: CC1CNCCN(S(=O)(=O)c2ccc(NC(=O)NCc3cccnc3)cc2)C1 (racemic)
CLhep predicted at 1 µM [2]: 16 mL/min/kg
solubility at 24 h, 100 µM [3]: 107 µM (≈ 43.2 µg/mL)
Papp A→B at 10 µM [4]: 0.1 ×10⁻⁶ cm/s
CLhep predicted at 1 µM [5]: 48 mL/min/kg
CLhep predicted at 1 µM [1]: 8 mL/min/kg

Compound: CC1CCN(S(=O)(=O)c2ccc(NC(=O)NCc3cccnc3)cc2)CCN1 (racemic)
CLhep predicted at 1 µM [1]: 5 mL/min/kg

Compound: O=C(NCc1cccnc1)Nc1ccc(S(=O)(=O)N2CCNC(C(F)(F)F)CC2)cc1 (racemic)
CLhep predicted at 1 µM [1]: 18 mL/min/kg

Continued, values first:

CLhep predicted at 1 µM [1]: 6 mL/min/kg
Compound: O=C(NCc1cccnc1)Nc1ccc(S(=O)(=O)N2CCOCC2)cc1

CLhep predicted at 1 µM [1]: 8 mL/min/kg
Compound: O=C(NCc1cccnc1)Nc1ccc(S(=O)(=O)c2ccccc2)cc1

CLhep predicted at 1 µM [1]: 7 mL/min/kg
Compound: O=C(NCc1cccnc1)Nc1ccc(S(=O)(=O)N2CC3(COC3)C2)cc1

CLhep predicted at 1 µM [1]: 12 mL/min/kg
Compound: COc1ccc(CNC(=O)Nc2ccc(S(=O)(=O)c3ccccc3)cc2)cn1

CLhep predicted at 1 µM [1]: 6 mL/min/kg
Compound: O=C(NCc1ccc(Cl)nc1)Nc1ccc(S(=O)(=O)c2ccccc2)cc1

CLhep predicted at 1 µM [2]: 12 mL/min/kg
Vd [6]: 0.51 L/kg
Cmax [7]: 2900 nM
clearance [8]: 4.9 mL/min/kg
half-life [9]: 156 min
solubility at 24 h, 100 µM [3]: 109 µM (≈ 41.7 µg/mL)
Papp A→B at 10 µM [4]: 2.9 ×10⁻⁶ cm/s
CLhep predicted at 1 µM [5]: 42 mL/min/kg
CLhep predicted at 1 µM [1]: 5 mL/min/kg
half-life [10]: 162 min
bioavailability [11]: 31%
Tmax [12]: 49.8 min
Compound: Nc1ccc(CNC(=O)Nc2ccc(S(=O)(=O)c3ccccc3)cc2)cn1

CLhep predicted at 1 µM [1]: 8 mL/min/kg
Compound: O=C(NCc1cncc(F)c1)Nc1ccc(S(=O)(=O)c2ccccc2)cc1

CLhep predicted at 1 µM [1]: 3 mL/min/kg
Compound: O=C(NCc1cccnn1)Nc1ccc(S(=O)(=O)c2ccccc2)cc1

CLhep predicted at 1 µM [1]: 5 mL/min/kg
Compound: O=C(NCc1cnccn1)Nc1ccc(S(=O)(=O)c2ccccc2)cc1

CLhep predicted at 1 µM [1]: 6 mL/min/kg
Compound: O=C(NCc1cncnc1)Nc1ccc(S(=O)(=O)c2ccccc2)cc1

CLhep predicted at 1 µM [1]: 3 mL/min/kg
Compound: Nc1ncc(CNC(=O)Nc2ccc(S(=O)(=O)c3ccccc3)cc2)cn1

CLhep predicted at 1 µM [1]: 17 mL/min/kg
Compound: C[C@@H]1COC[C@@H](C)N1S(=O)(=O)c1ccc(NC(=O)NCc2cccnc2)cc1 (racemic)
